Values after ≈ are worked out from the molar mass of the structure shown.
Columns and labels:
Aspergillus fumigatus = test: Antifungal activity against Aspergillus fumigatus ATCC 46645 assessed as growth inhibition after 48 hr by agar streak dilution method; type: functional; conditions: ATCC 46645, 48 h
Aspergillus niger = test: Antifungal activity against Aspergillus niger ATCC 9029 assessed as growth inhibition after 48 hr by agar streak dilution method; type: functional; conditions: ATCC 9029, 48 h
Klebsiella pneumoniae = test: Antibacterial activity against Klebsiella pneumoniae ATCC 11298 assessed as growth inhibition after 24 hr by agar streak dilution method; type: functional; conditions: ATCC 11298, 24 h
Pseudomonas aeruginosa = test: Antibacterial activity against Pseudomonas aeruginosa […] assessed as growth inhibition after 24 hr by agar streak dilution method; type: functional
Rattus norvegicus [1] = test: Anti-inflammatory activity in Rattus norvegicus Wistar (rat) assessed as protection against carrageenan-induced paw edema at 20 mg/kg, po measured at 1 hr by plethysmographic analysis (reference value: 6 +/- 0.63%); type: functional
Rattus norvegicus [2] = test: Anti-inflammatory activity in Rattus norvegicus Wistar (rat) assessed as protection against carrageenan-induced paw edema at 10 mg/kg, po measured at 1 hr by plethysmographic analysis (reference value: 6 +/- 0.63%); type: functional
Rattus norvegicus [3] = test: Anti-inflammatory activity in Rattus norvegicus Wistar (rat) assessed as protection against carrageenan-induced paw edema at 20 mg/kg, po measured at 30 min by plethysmographic analysis (reference value: 4 +/- 0.28%); type: functional
Rattus norvegicus [4] = test: Anti-inflammatory activity in Rattus norvegicus Wistar (rat) assessed as protection against carrageenan-induced paw edema at 10 mg/kg, po measured at 30 min by plethysmographic analysis (reference value: 4 +/- 0.28%); type: functional
Escherichia coli = test: Antibacterial activity against Escherichia coli ATCC 25922 assessed as growth inhibition after 24 hr by agar streak dilution method; type: functional; conditions: ATCC 25922, 24 h
Bacillus cereus = test: Antibacterial activity against Bacillus cereus ATCC 11778 assessed as growth inhibition after 24 hr by agar streak dilution method; type: functional; conditions: ATCC 11778, 24 h
Micrococcus luteus = test: Antibacterial activity against Micrococcus luteus ATCC 4698 assessed as growth inhibition after 24 hr by agar streak dilution method; type: functional; conditions: ATCC 4698, 24 h
[5] = system: Staphylococcus epidermidis; test: Antibacterial activity against Staphylococcus epidermidis ATCC 155 assessed as growth inhibition after 24 hr by agar streak dilution method; type: functional; conditions: ATCC 155, 24 h
Staphylococcus aureus = test: Antibacterial activity against Staphylococcus aureus ATCC 9144 assessed as growth inhibition after 24 hr by agar streak dilution method; type: functional; conditions: ATCC 9144, 24 h
Rattus norvegicus [6] = test: Ulcerogenecity in Rattus norvegicus Wistar albino (rat) stomach assessed as ulcer index administered 20 mg/kg, ip qd for 3 days measured on day 4 relative to aspirin; type: ADME, organism-based; design: dose 20 mg/kg, route intraperitoneal; conditions: in vivo, 72 h
Rattus norvegicus [7] = test: Ulcerogenecity in Rattus norvegicus Wistar albino (rat) stomach assessed as ulcer index administered 20 mg/kg, ip qd for 3 days measured on day 4 relative to diclofenac; type: ADME, organism-based; design: dose 20 mg/kg, route intraperitoneal; conditions: in vivo, 72 h
Rattus norvegicus [8] = test: Ulcerogenecity in Rattus norvegicus Wistar albino (rat) stomach assessed as ulcer index administered 20 mg/kg, ip qd for 3 days measured on day 4 (reference value: 0.13 +/- 0.05 no unit); type: ADME, organism-based; design: dose 20 mg/kg, route intraperitoneal; conditions: in vivo, 72 h
Rattus norvegicus [9] = test: Anti-inflammatory activity in Rattus norvegicus Wistar (rat) assessed as protection against carrageenan-induced paw edema at 20 mg/kg, po measured at 3 hr by plethysmographic analysis (reference value: 4 +/- 0.75%); type: functional
Rattus norvegicus [10] = test: Anti-inflammatory activity in Rattus norvegicus Wistar (rat) assessed as protection against carrageenan-induced paw edema at 10 mg/kg, po measured at 3 hr by plethysmographic analysis (reference value: 4 +/- 0.75%); type: functional
Rattus norvegicus [11] = test: Anti-inflammatory activity in Rattus norvegicus Wistar (rat) assessed as protection against carrageenan-induced paw edema at 20 mg/kg, po measured at 2 hr by plethysmographic analysis (reference value: 5 +/- 0.41%); type: functional
Rattus norvegicus [12] = test: Anti-inflammatory activity in Rattus norvegicus Wistar (rat) assessed as protection against carrageenan-induced paw edema at 10 mg/kg, po measured at 2 hr by plethysmographic analysis (reference value: 5 +/- 0.41%); type: functional
Mus musculus [13] = test: Analgesic activity in Mus musculus […] albino (mouse) at 20 mg/kg, po measured at 3 hr by tail flick test (reference value: 3 +/- 0.41%)
Mus musculus [14] = test: Analgesic activity in Mus musculus […] albino (mouse) at 10 mg/kg, po measured at 3 hr by tail flick test (reference value: 3 +/- 0.41%)
Mus musculus [15] = test: Analgesic activity in Mus musculus […] albino (mouse) at 20 mg/kg, po measured at 2 hr by tail flick test (reference value: 6 +/- 0.84%)
Mus musculus [16] = test: Analgesic activity in Mus musculus […] albino (mouse) at 10 mg/kg, po measured at 2 hr by tail flick test (reference value: 6 +/- 0.84%)
Mus musculus [17] = test: Analgesic activity in Mus musculus […] albino (mouse) at 10 mg/kg, po measured at 1 hr by tail flick test (reference value: 5 +/- 0.49%)
Mus musculus [18] = test: Analgesic activity in Mus musculus […] albino (mouse) at 20 mg/kg, po measured at 1 hr by tail flick test (reference value: 5 +/- 0.49%)
Mus musculus [19] = test: Analgesic activity in Mus musculus […] albino (mouse) at 20 mg/kg, po measured at 30 min by tail flick test (reference value: 4 +/- 0.72%)
Mus musculus [20] = test: Analgesic activity in Mus musculus […] albino (mouse) at 10 mg/kg, po measured at 30 min by tail flick test (reference value: 4 +/- 0.72%)

Structure (SMILES)	MIC (Aspergillus fumigatus) [µg/mL]	MIC (Aspergillus niger) [µg/mL]	MIC (Klebsiella pneumoniae) [µg/mL]	MIC (Pseudomonas aeruginosa) [µg/mL]	Activity (Rattus norvegicus [1]) [%]	Activity (Rattus norvegicus [2]) [%]	Activity (Rattus norvegicus [3]) [%]	Activity (Rattus norvegicus [4]) [%]	MIC (Escherichia coli) [µg/mL]	MIC (Bacillus cereus) [µg/mL]	MIC (Micrococcus luteus) [µg/mL]	MIC [5] [µg/mL]	MIC (Staphylococcus aureus) [µg/mL]	Activity (Rattus norvegicus [9]) [%]	Activity (Rattus norvegicus [10]) [%]	Activity (Rattus norvegicus [11]) [%]	Activity (Rattus norvegicus [12]) [%]	Activity (Mus musculus [13]) [%]	Activity (Mus musculus [14]) [%]	Activity (Mus musculus [15]) [%]	further results
Cc1nc2ccccc2c(=O)n1-c1ccc(NC(=O)CN/N=C/c2ccc([N+](=O)[O-])cc2)cc1	15.6 (≈ 34.2 µM)	15.6 (≈ 34.2 µM)	7.81 (≈ 17.1 µM)	15.6 (≈ 34.2 µM)	36	26	29	20	31.2 (≈ 68.5 µM)	7.81 (≈ 17.1 µM)	15.6 (≈ 34.2 µM)	7.81 (≈ 17.1 µM)	31.2 (≈ 68.5 µM)	31	20	40	31	27	25	49	UI (Rattus norvegicus [6]): 31%; UI (Rattus norvegicus [7]): 34%; UI (Rattus norvegicus [8]): 0.8 no unit; Activity (Mus musculus [16]): 36%; Activity (Mus musculus [17]): 31%; Activity (Mus musculus [18]): 42%; Activity (Mus musculus [19]): 38%; Activity (Mus musculus [20]): 26%
Cc1nc2ccccc2c(=O)n1-c1ccc(NC(=O)CN/N=C/c2ccc(O)cc2)cc1	62.5 (≈ 146 µM)	125 (≈ 292 µM)	125 (≈ 292 µM)	125 (≈ 292 µM)	39	25	30	21	125 (≈ 292 µM)	125 (≈ 292 µM)	62.5 (≈ 146 µM)	125 (≈ 292 µM)	125 (≈ 292 µM)	29	22	43	28	26	20	47	UI (Rattus norvegicus [6]): 31%; UI (Rattus norvegicus [7]): 34%; UI (Rattus norvegicus [8]): 0.82 no unit; Activity (Mus musculus [16]): 34%; Activity (Mus musculus [17]): 30%; Activity (Mus musculus [18]): 43%; Activity (Mus musculus [19]): 36%; Activity (Mus musculus [20]): 23%
Cc1nc2ccccc2c(=O)n1-c1ccc(NC(=O)CN/N=C\c2c[nH]c3ccccc23)cc1	62.5 (≈ 139 µM)	31.2 (≈ 69.4 µM)	15.6 (≈ 34.7 µM)	15.6 (≈ 34.7 µM)	36	23	28	20	62.5 (≈ 139 µM)	31.2 (≈ 69.4 µM)	31.2 (≈ 69.4 µM)	31.2 (≈ 69.4 µM)	62.5 (≈ 139 µM)	32	21	41	29	20	18	41	UI (Rattus norvegicus [6]): 31%; UI (Rattus norvegicus [7]): 34%; UI (Rattus norvegicus [8]): 0.72 no unit; Activity (Mus musculus [16]): 29%; Activity (Mus musculus [17]): 25%; Activity (Mus musculus [18]): 35%; Activity (Mus musculus [19]): 30%; Activity (Mus musculus [20]): 19%
Cc1ccc(/C=N\NCC(=O)Nc2ccc(-n3c(C)nc4ccccc4c3=O)cc2)o1	62.5 (≈ 150 µM)	125 (≈ 301 µM)	62.5 (≈ 150 µM)	31.2 (≈ 75.2 µM)	35	25	31	19	62.5 (≈ 150 µM)	62.5 (≈ 150 µM)	125 (≈ 301 µM)	62.5 (≈ 150 µM)	62.5 (≈ 150 µM)	30	23	39	30	21	19	38	UI (Rattus norvegicus [6]): 31%; UI (Rattus norvegicus [7]): 34%; UI (Rattus norvegicus [8]): 0.77 no unit; Activity (Mus musculus [16]): 27%; Activity (Mus musculus [17]): 24%; Activity (Mus musculus [18]): 33%; Activity (Mus musculus [19]): 29%; Activity (Mus musculus [20]): 17%
O=C(O)c1cn(C2CC2)c2cc(N3CCNCC3)c(F)cc2c1=O [CIPROFLOXACIN]	–	–	3.9 (≈ 11.8 µM)	7.81 (≈ 23.6 µM)	–	–	–	–	15.6 (≈ 47.1 µM)	7.81 (≈ 23.6 µM)	7.81 (≈ 23.6 µM)	7.81 (≈ 23.6 µM)	15.6 (≈ 47.1 µM)	–	–	–	–	–	–	–	–
O=C([O-])Cc1ccccc1Nc1c(Cl)cccc1Cl.[Na+] [DICLOFENAC SODIUM]	–	–	–	–	51	36	40	31	–	–	–	–	–	43	29	60	42	41	32	64	Activity (Mus musculus [16]): 49%; Activity (Mus musculus [17]): 44%; Activity (Mus musculus [18]): 55%; Activity (Mus musculus [19]): 47%; Activity (Mus musculus [20]): 34%
CC(=O)N1CCN(c2ccc(OCC3COC(Cn4ccnc4)(c4ccc(Cl)cc4Cl)O3)cc2)CC1 (configuration not stated) [KETOCONAZOLE]	7.81 (≈ 14.7 µM)	15.6 (≈ 29.4 µM)	–	–	–	–	–	–	–	–	–	–	–	–	–	–	–	–	–	–	–

From ChEMBL document CHEMBL3044568, “Synthesis, analgesic, anti-inflammatory, and in vitro antimicrobial activities of some novel quinazolin-4(3H)-one derivatives” (Med Chem Res, 2013)
